For series [1], the target named is T1, human dopamine D2L receptors (long isoform) (Homo sapiens, UniProt P14416).
T1 construct: expressed in transfected cells; host or cells: HEK-293
Description: Dopamine D2L receptor binding, displacement of [125I] iodospiperone. Conditions: membranes of HEK-293 cells, 0.01 nM [125I] iodospiperone, 25° C., 60 minutes; read-out: Ki D2. The protocol:
(§1) The substance to be tested was either dissolved in methanol/Chremophor® (BASF-AG) or in dimethyl sulfoxide and then diluted with water to the desired concentration.
(§2) Each assay mixture was run in triplicate.
The incubation buffer contained 50 mM tris, 120 mM NaCl, 5 mM KCl, 2 mM CaCl2, 2 mM MgCl2 and 0.1% bovine serum albumin. The buffer was adjusted to pH 7.4 with HCl.
(§3) After having been incubated at 25° C. for 60 minutes, the assay mixtures were filtered through a Wathman GF/B glass fiber filter under vacuum using a cell collecting device. The filters were transferred to scintillation viols using a filter transfer system. After 4 ml of Ultima Gold® (Packard) have been added, the samples were shaken for one hour and the radioactivity was then counted in a Beta-Counter (Packard, Tricarb 2000 or 2200CA). The cpm values were converted into dpm using a standard quench series and the program belonging to the instrument.
(§4) The inhibition curves were analyzed by means of iterative nonlinear regression analysis using the Statistical Analysis System (SAS) which is similar to the “LIGAND” program described by Munson and Rodbard.
A general note: Displacement assays read how much labelled ligand stays bound in the presence of the test substance.

Series [2] concerns the target T2, human dopamine D3 receptors (Homo sapiens, UniProt P35462).
T2 construct: expressed in transfected cells; host or cells: HEK-293
The series can be described thus: Dopamine D3 receptor binding, displacement of [125I]-iodosulpride. Particulars: for Ki: membranes of HEK-293 cells, 0.1 nM [125I]-iodosulpride, 25° C., 60 minutes; for Selectivity [Ki(D2)/Ki(D3)]: ratio of Ki D2 to Ki D3. The protocol:
as §1, §2
The incubation buffer contained 50 mM tris, 120 mM NaCl, 5 mM KCl, 2 mM CaCl2, 2 mM MgCl2 and 0.1% bovine serum albumin, 10 μM quinolone and 0.1% ascorbic acid (prepared fresh daily). The buffer was adjusted to pH 7.4 with HCl.
as §3, §4

The results in this text go back to patent publication US6919342B2, “Triazole compounds suitable for treating disorders that respond to modulation of the dopamine D3 receptor” (Abbott GmbH & Co. KG, priority 2003, dated 2005).

T2 sequence (P35462 whole entry): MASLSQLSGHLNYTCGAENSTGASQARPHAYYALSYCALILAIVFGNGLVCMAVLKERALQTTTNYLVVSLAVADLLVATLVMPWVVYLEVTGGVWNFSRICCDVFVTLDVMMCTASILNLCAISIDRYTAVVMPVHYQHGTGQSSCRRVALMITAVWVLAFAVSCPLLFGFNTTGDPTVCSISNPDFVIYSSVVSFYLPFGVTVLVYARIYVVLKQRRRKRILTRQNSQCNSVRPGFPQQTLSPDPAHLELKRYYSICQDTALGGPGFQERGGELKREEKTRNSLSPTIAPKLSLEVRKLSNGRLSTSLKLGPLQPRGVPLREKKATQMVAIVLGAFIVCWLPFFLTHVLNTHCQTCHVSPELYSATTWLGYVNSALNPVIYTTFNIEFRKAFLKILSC
T1 sequence (P14416 whole entry, canonical isoform): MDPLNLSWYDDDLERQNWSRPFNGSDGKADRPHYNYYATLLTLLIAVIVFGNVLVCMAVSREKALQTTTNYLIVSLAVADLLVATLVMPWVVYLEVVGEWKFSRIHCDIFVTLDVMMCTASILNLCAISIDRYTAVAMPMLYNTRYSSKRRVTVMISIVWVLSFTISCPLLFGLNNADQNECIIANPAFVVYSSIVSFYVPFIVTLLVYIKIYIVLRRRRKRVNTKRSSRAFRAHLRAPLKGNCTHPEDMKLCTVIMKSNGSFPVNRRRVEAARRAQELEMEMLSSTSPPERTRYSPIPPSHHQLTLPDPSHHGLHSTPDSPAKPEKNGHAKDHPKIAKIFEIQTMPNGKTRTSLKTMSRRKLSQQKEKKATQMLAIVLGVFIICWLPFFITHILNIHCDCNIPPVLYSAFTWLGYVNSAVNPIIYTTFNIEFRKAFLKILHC

For `Cn1c(N)nnc1SCCCN1CCN(c2cc(C(C)(C)C)nc(C(C)(C)C)n2)CC1` [A], the Ki in series [1] came out at 12 nM. In series [2], the Ki worked out at 0.7 nM and the “Selectivity [Ki(D2)/Ki(D3)]” value amounted to 19.

Turning to `Cn1c(N)nnc1SCCCN1CCN(c2cc(C(F)(F)F)nc(C(C)(C)C)n2)CC1` [B], the Ki in series [1] turned out to be 119 nM; in series [2], 3.9 nM. In addition, the “Selectivity [Ki(D2)/Ki(D3)]” value in series [2] was 31.

Take `Cl.Cn1cnnc1SCCCN1CCN(c2cc(C(F)(F)F)nc(C(C)(C)C)n2)CC1` [Example 6, 2-tert-Butyl-4-{4-[3-(4-methyl-4H-[1,2,4]triazol-3-ylsulfanyl)-propyl]-piperazin-1-yl}-6-trifluoromethyl-pyrimidine hydrochloride]: the melting point fell in the range of 92 to 95 °C.

Usually Ki stands for the dissociation constant of the complex between target and ligand, obtained from inhibition or displacement. As a reminder, the melting point is the temperature, or range, at which the solid turns liquid.
